Key:
[1] = clinical; settings: human, in vivo, po, 2 mg
Experimental: The present interim pharmacokinetic analysis was carried out by ASTER. Patients included were treated for solid tumour. On study Day 1 each patient received one oral dose of halofuginone, either 1 mg (one patient) or 2 mg (6 patients), and blood samples for pharmacokinetics were collected up to 72 hours (3 days) after dosing. Immediately after the collection of the 72 hour blood sample, patients started the multiple dose regimen consisting in morning daily dose administration of 1 mg (for subject No.1) or 2 mg (6 remaining patients) until study Day 15. Urine samples were collected over 48 hours after first dosing. Urine concentrations were only available for patients No.1, No.2, No.3 and No.4, and thus only 4 patients were included in the analysis of urine excretion data.

[2] = system: humans; assay: Maximum tolerated oral dose of halofuginone in humans; settings: oral administration
[3] = system: healthy male volunteers; assay: Phase I clinical study of safety of oral halofuginone, three dosing regimens; type: in vivo, human
Experimental: The Phase I clinical study described below was conducted in the PPD Development Clinical Pharmacology Unit, 72 Hospital Close, Evington, Leicester, United Kingdom, between September 2001 and October 2001. The objective of this study was to compare the safety and tolerability of halofuginone when a daily dose of 2 mg is administered using three different dosing regimens.
A single-center, open label, three-period, phase I study was performed. Eight subjects attended the PPD Development Clinic for pre-study screening […]. Visits at the Clinic were as follows:
Subjects were admitted to the Clinic on the evening of Day-1. After an overnight fast, subjects received an oral dose of 0.25 mg halofuginone with a standard snack. Each subject received a total of eight doses at 3-hour intervals starting at approximately 10:00 h on Day 1, and remained resident in the Clinic until the morning of Day 3 [after the 24 hour pharmacokinetic (PK) sample]. They returned to the Clinic for an out-patient visit on the morning of Day 4 to provide a PK blood sample. There was a washout of at least 6 days after the last dose in Period 1 before the start of dosing in Period 2.
Subjects were admitted to the Clinic at approximately 07:00 h on Day 1. Subjects were provided with breakfast and then fasted until the first dose. Subjects received an oral dose of 0.5 mg halofuginone with a standard meal at 6-hour intervals starting at approximately 13:00 h (a total of four doses) and remained resident in the Clinic until the morning of Day 3 (after the 24 hour PK sample). They returned to the Clinic for an out-patient visit on the morning of Day 4 to provide a PK blood sample. There was a washout of at least 6 days after the last dose in Period 2 before the start of dosing in Period 3.
Subjects were admitted to the Clinic on the evening of Day-1. After an overnight fast, subjects received a single oral dose of 2 mg halofuginone with breakfast at approximately 07:00 h on Day 1 and remained resident in the Clinic until the morning of Day 2 (after the 24 hour PK sample). They returned to the clinic for an out-patient visit on the morning of Day 3 to provide a PK blood sample.
Adverse events (AEs) were monitored throughout the study period. Vital signs (including blood pressure, pulse rate and oral body temperature), electrocardiogram (ECG), physical examinations and routine laboratory safety analyses were conducted at the pre-study screening and at the post-study follow-up visits.
Eight healthy male Caucasian subjects were enrolled into the study. The mean age was 31.1 years (range 19-39 years), mean height was 176.6 cm (range 169-184 cm), mean weight was 78.9 kg (range 62.7-91.7 kg) and mean BMI was 25.2 kg/m^2 (range 21.9-27.9 kg/m^2). All subjects completed the study.

O=C(CC1NCCCC1O)Cn1cnc2cc(Br)c(Cl)cc2c1=O (centres unmarked) [halofuginone, 7-bromo-6-chloro-3-[3-(3-hydroxy-2-piperidinyl)-2-oxopropyl]-4(3H)-quinazolinone]
half-life [1]: 37.2 h
maximum tolerated dose with no adverse effects observed [2]: 1 mg/day
tolerability conclusion ([3]; 2 mg given as eight doses of 0.25 mg with a snack or 4 doses of 0.5 mg with a meal): safe and well tolerated
treatment-emergent AEs considered moderate in severity ([3]; human, in vivo): two
headache AEs ([3]; male, human, in vivo): 3 AEs
nausea AEs ([3]; male, human, in vivo): 13 AEs
time to resolution of all vomiting AEs and most nausea AEs ([3]; male, human, in vivo): 1 h and 0.717 h
total AEs reported ([3]; male, human, in vivo): 29
treatment-emergent AEs ([3]; male, human, in vivo): 28
treatment-emergent AEs considered mild ([3]; male, human, in vivo): 26
tolerability conclusion ([3]; single dose of 2 mg with a meal): less well tolerated
